Measurements taken from patent publication US11806401B2, “Prevention of drug-induced atrio-ventricular block” (SignPath Pharma Inc., priority 2016, dated 2023).
Blank lines part the entries; values can stand above or below the compound they belong to.

Legend:
guinea pigs [1] = assay: Effect of single oral doses of Moxifloxacin on QTc interval of instrumented guinea pigs, without or with 14:0 lyso PG; type: in vivo, guinea pig
guinea pigs [2] = assay: Effect of Fingolimod, verapamil and 14:0 lyso PG on QTc interval in instrumented guinea pigs; type: in vivo, guinea pig
guinea pigs [3] = assay: Effect of Fingolimod, verapamil and 14:0 lyso PG on PR intervals / AV block in instrumented guinea pigs; type: in vivo, guinea pig
Method: PR intervals were measured following the infusion of Fingolimod. Measurements of PR were stopped when the P wave disconnected from the QRS complexes, indicating 3rd degree AV block.
Fingolimod was administered by intravenous infusion to instrumented guinea pigs at doses ranging from 3 μg/kg to 300 μg/kg (n=6, green series, above). The intravenous route of administration was selected because it simplified the pharmacokinetics of this multi-drug experiment.
Again, the intravenous route of administration for both drugs was selected to simplify the kinetics of the experiment.

[4] = test system: normal subjects and cancer patients; assay: Phase 1a and 1b clinical studies of liposomal curcumin (14:0 lyso PG); type: in vivo, human
Source text: To date, 45 normal subjects and 28 cancer patients have been tested in Phase 1a and 1b (ongoing) studies, respectively.

[5] = Prevention of drug-induced QTc prolongation in regulatory-validated preclinical models; type: in vivo; details: against Moxifloxacin; Nilotinib; Crizotinib; Sotalol; Curcumin; Nifedipine; Lovastatin; Thioridazine; Amiodarone; Terfenadine; E4031; Felbamate; Gilenya; Quizartinib (AC220); Forskolin; Turmerone
[6] = test system: clinical volunteers and patients; details: cited from earlier work
IKr = IKr (Homo sapiens, UniProt Q12809); details: cited from earlier work
Sequence of IKr (Q12809 whole entry): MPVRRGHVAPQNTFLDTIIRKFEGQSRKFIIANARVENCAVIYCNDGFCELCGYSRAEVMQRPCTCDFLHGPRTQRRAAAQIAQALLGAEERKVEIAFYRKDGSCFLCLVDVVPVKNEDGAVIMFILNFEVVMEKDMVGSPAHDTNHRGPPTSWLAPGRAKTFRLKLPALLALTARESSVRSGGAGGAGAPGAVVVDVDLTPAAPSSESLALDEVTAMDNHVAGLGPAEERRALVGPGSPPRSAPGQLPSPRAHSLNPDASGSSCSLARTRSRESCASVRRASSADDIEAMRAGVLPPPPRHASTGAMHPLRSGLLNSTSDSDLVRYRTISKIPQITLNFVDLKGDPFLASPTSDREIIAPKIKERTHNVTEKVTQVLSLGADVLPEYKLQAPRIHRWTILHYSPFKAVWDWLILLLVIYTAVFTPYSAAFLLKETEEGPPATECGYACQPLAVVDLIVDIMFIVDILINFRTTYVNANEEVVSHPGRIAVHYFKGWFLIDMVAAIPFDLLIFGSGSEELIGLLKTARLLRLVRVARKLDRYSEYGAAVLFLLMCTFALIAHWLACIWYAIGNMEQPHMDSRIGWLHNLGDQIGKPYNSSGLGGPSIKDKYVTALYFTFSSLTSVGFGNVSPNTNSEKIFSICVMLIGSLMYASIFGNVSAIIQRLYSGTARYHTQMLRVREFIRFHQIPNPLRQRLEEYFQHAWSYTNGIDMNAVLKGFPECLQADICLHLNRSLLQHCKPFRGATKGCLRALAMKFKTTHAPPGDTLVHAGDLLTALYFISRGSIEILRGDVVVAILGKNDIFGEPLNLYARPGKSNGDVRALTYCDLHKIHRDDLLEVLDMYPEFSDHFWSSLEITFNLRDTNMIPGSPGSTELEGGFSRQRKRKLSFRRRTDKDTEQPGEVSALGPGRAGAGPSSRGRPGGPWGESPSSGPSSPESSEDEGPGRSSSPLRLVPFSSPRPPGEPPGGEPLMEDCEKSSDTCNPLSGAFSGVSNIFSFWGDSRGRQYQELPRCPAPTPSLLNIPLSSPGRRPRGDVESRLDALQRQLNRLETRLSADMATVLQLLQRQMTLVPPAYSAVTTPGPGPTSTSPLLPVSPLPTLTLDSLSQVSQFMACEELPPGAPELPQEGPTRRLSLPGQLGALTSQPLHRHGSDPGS

[7] = 14:0 lyso PG given orally prior to Fingolimod and/or verapamil
[8] = 0.5 mg/kg verapamil i.v. 60 minutes before Fingolimod infusion
[9] = intravenous infusion of Fingolimod alone
[10] = oral 1.0 mg/kg 14:0 lyso PG, then verapamil, then Fingolimod infusion

SMILES: CCCCCCCCCCCCCC(=O)OC[C@@H](O)COP(=O)(O)OCC(O)CO (mixture of isomers) [14:0 lyso PG, 1-myristoyl-2-hydroxy-sn-glycero-3-phospho-(1′-rac-glycerol)]
- changes in QTc (guinea pigs [1]; concomitant oral 14:0 lyso PG with Moxifloxacin, 14:0 lyso PG:Moxifloxacin ratio 0.45:1, n=6): no, or very little, changes in QTc
- shift in the QTc-dose response of Moxifloxacin (guinea pigs [1]; concomitant oral 14:0 lyso PG, ratio 0.45:1): statistically significant right-shift
- change in cardiac electrophysiology (guinea pigs [2]; guinea pig, in vivo, po, 1 mg/kg): no change in cardiac electrophysiology
- QTc prolongation for any given dose of Fingolimod relative to verapamil+Fingolimod animals (guinea pigs [2]; oral 1.0 mg/kg 14:0 lyso PG, then 0.5 mg/kg verapamil i.v. at 60 min, Fingolimod i.v. at 120 min): ⅓
- Maximum Tolerated Dose (MTD) (guinea pigs [2]; oral gavage formulation): greater than the highest achievable dose in the oral formulation
- right-shift of the appearance of 3rd-degree AV block compared to Fingolimod alone (guinea pigs [3]; [7]): 13 fold
- right-shift of the appearance of 3rd-degree AV block compared to animals receiving both Fingolimod and verapamil (guinea pigs [3]; [7]): 6.6 fold
- adverse effects ([4]; exposure levels used in the curcumin Phase 1a and Phase 1b clinical trials): devoid of adverse effects
- clinical efficacy against curcumin: QT and QTc interval prolongation ([4]; ongoing Phase 1b study, human patients): preventing QT and QTc interval prolongation
- tolerability in clinical trials ([4]; orally-administered): well-tolerated
- QTc prolongation by other drugs [5]: prevents

- Fingolimod dose at 1st-degree AV block (guinea pigs [3]; [8]): 0.007 mg/kg
- Fingolimod dose at 3rd-degree dissociation between P waves and QRS complexes (guinea pigs [3]; [8]): 0.045 mg/kg
- Fingolimod dose at Mobitz-Type-1 2nd degree AV block (guinea pigs [3]; [8]): 0.01 mg/kg
- Fingolimod dose at 1st degree AV block (guinea pigs [3]; [9]): 0.015 mg/kg
- Fingolimod dose at 3rd degree AV block (guinea pigs [3]; [9]): 0.023 mg/kg
- Fingolimod dose at Mobitz Type-1, 2nd-degree AV block (guinea pigs [3]; [9]): 0.02 mg/kg
- Fingolimod dose at 1st-degree AV block (guinea pigs [3]; oral 1.0 mg/kg 14:0 lyso PG, 0.5 mg/kg verapamil i.v. 60 min later, Fingolimod infusion 60 min post-verapamil): 0.2 mg/kg
- Fingolimod dose at P-QRS dissociation, in the rest of the animals in the cohort (guinea pigs [3]; [10]): 0.3 mg/kg
- Fingolimod dose at P-QRS dissociation, in the two animals with Mobitz-Type-2 AV block (guinea pigs [3]; [10]): 0.051 mg/kg
- animals with Mobitz-Type-2 AV block (guinea pigs [3]; [10]): 2 out of 6
- changes in PR intervals (guinea pigs [3]; oral 1.0 mg/kg 14:0 lyso PG, then verapamil, then Fingolimod infusion, up to a dose of 200 μg/kg): modest changes in PR intervals
SMILES: CCCCCCCCc1ccc(CCC(N)(CO)CO)cc1 [Fingolimod]
- AV block in human patients ([6]; Full Prescribing Information, Novartis): produce AV block from the first dose
- QT/QTc prolongation ([6]; administered alone in healthy, naive animals and clinical volunteers): limited QT/QTc prolongation
- QTc intervals ([6]; clinical patients taking verapamil along with Fingolimod): severely prolonged QTc intervals
- delays in repolarization ([6]; therapeutic doses, in a pair of individuals (EMA Assessment Report)): 60 ms
- IKr inhibition (IKr): approximately 64%
